Reference: article PMC7037052, “Predicting the Blood-Brain Barrier Permeability of New Drug-Like Compounds via HPLC with Various Stationary Phases” (Molecules, 2020)

How the values were obtained:
[1] = RP-HPLC retention on Purosphere RP-18e (ODS) column, buffer pH 7.4-acetonitrile; assay type: physicochemical; settings: for log kw, ODS: extrapolated to buffer pH 7.4 as mobile phase, 25 °C; for s ODS: slope of Soczewiński-Wachtmeister equation, acetonitrile φ 0.3–0.6
Experimental: (§1) Retention parameters reported as the log k values were calculated by the expression:(1) logk=log(tR−t0)/t0 where tR and t0 are the retention times of the solute and a non-retained compound (citric acid), respectively. They were used to calculate the log kw values, i.e., logarithms of retention parameter in the buffer as the mobile phase. For this purpose the Soczewiński-Wachtmeister’s equation was used:log k = log kw − sφ(2) where φ is the volume fraction of organic modifier in the mobile phase; k and kw are retention parameters corresponding to mixed effluent and buffer as the mobile phase, respectively. The slope s is characteristic of a given solute and chromatographic system. Strong linear relationships between log k and φ values were found for all the compounds in the range of effluent composition examined (R^2 > 0.9). The log kw values determined for the ODS (log kw, ODS), IAM (log kw, IAM) and Cholester (log kw, Cholester) columns were intercorrelated and the following linear relationships with a very good statistical quality were obtained:log kw, ODS = 0.691(± 0.094) + 0.982(± 0.044) log kw, IAM(3) SD = 0.257; R^2 = 0.8880; N = 65 log kw, ODS = 0.911(± 0.062) + 0.765(± 0.025) log kw, Cholester(4) SD = 0.192; R^2 = 0.9371; N = 65 log kw, IAM = 0.356(± 0.073) + 0.721(± 0.029) log kw, Cholester(5) SD = 0.224; R^2 = 0.9068; N = 65
(§2) Shimadzu Vp (Shimadzu, Izabelin, Poland) liquid chromatographic system equipped with LC 10AT pump, SPD 10A UV-Vis detector, SCL 10A system controller, CTO-10 AS chromatographic oven and Rheodyne injector valve with a 20 µL loop was applied in HPLC measurements. Three stationary phases were employed: • Purosphere RP-18e (ODS), 125 × 4 mm i.d., 5 µm (Merck); • IAM.PC.DD2 100 × 4.6 mm i.d., 10 µm (Regis Chemicals Company, Morton Grove, IL, USA); • Cosmosil Cholester, 75 × 2 mm i.d., 2.5 µm (Genore, Warsaw, Poland).
(§3) As mobile phases buffer-acetonitrile mixtures were used. The buffer was prepared from 0.01 mol L^−1 solutions of Na2HPO4 and citric acid and the pH 7.4 value was fixed before mixing with organic modifier. With the ODS column acetonitrile concentration in the effluent, expressed as a volume fraction (φ, v/v), was changed in the range 0.3–0.6, with the constant step of 0.1. The flow rate was 1 mL min^−1. With the IAM column acetonitrile concentration was changed in the range 0.2–0.5, also with the constant step of 0.1 and the flow rate was 1.3 mL min^−1. With the Cosmosil Cholester column acetonitrile concentration was changed in the range 0.4–0.6, with the constant step of 0.05 and the flow rate was 0.4 mL min^−1. Samples of test compounds were dissolved in acetonitrile—c.a. 0.005 mg mL^−1. […] They were detected under UV light at 210 and 254 nm. All measurements were carried out at 25 °C. The dead time values were measured from non-retained compound (citric acid) peaks. All reported log kw values are the average of at least three independent measurements. The extrapolated retention coefficients (logs kw) achieved by HPLC on ODS, IAM and Cholester stationary phases were used for modelling the log BB permeation of 65 drug-like compounds employed as a whole test set (Table 1).

[2] = RP-HPLC retention on IAM.PC.DD2 (immobilized artificial membrane) column, buffer pH 7.4-acetonitrile; assay type: physicochemical; settings: for log kw, IAM: extrapolated to buffer pH 7.4 as mobile phase, 25 °C; for s IAM: slope of Soczewiński-Wachtmeister equation, acetonitrile φ 0.2–0.5
Experimental: as §1, §2, §3

[3] = RP-HPLC retention on Cosmosil Cholester column, buffer pH 7.4-acetonitrile; assay type: physicochemical; settings: for log kw, Cholester: extrapolated to buffer pH 7.4 as mobile phase, 25 °C; for s Cholester: slope of Soczewiński-Wachtmeister equation, acetonitrile φ 0.4–0.6
Experimental: as §1, §2, §3

human cancer cells = system: human cancer cells; set-up: method as in doi:10.1016/j.arabjc.2016.12.024, PMID 24126095; settings: cited from earlier work
normal cells = system: normal cells; set-up: method as in doi:10.1016/j.arabjc.2016.12.024, PMID 24126095; settings: cited from earlier work

log kw, ODS [1] | s ODS [1] | log kw, IAM [2] | s IAM [2] | log kw, Cholester [3] | s Cholester [3] | Compound | antiproliferative activities in human cancer cells (human cancer cells) | toxic effects for normal cells (normal cells)
2.43 | 4.60 | 1.73 | 3.84 | 1.96 | 3.65 | O=c1c(-c2ccccc2)nnc2n1CCN2c1ccccc1Cl [Compound 37] | – | –
3.29 | 5.70 | 2.64 | 5.41 | 3.20 | 5.20 | O=c1c(-c2ccccc2)nnc2n1CCN2c1cccc(Cl)c1 [Compound 38] | – | –
2.93 | 5.02 | 2.51 | 5.17 | 3.21 | 5.15 | CCOc1ccc(N2CCn3c2nnc(Cc2ccccc2Cl)c3=O)cc1 [Compound 53] | – | –
3.11 | 5.05 | 2.52 | 5.06 | 2.98 | 4.85 | O=c1c(Cc2ccccc2)nnc2n1CCN2c1ccc(Cl)cc1 [Compound 57] | – | –
4.29 | 6.66 | 3.40 | 6.55 | 4.12 | 6.20 | O=c1c(CCc2ccccc2)nnc2n1CCN2c1ccc(Cl)c(Cl)c1 [Compound 65] | – | –
4.02 | 6.45 | 3.17 | 6.18 | 3.68 | 5.82 | O=c1c(Cc2ccc(Cl)cc2)nnc2n1CCN2c1ccc(Cl)cc1 [Compound 60] | – | –
2.90 | 5.02 | 3.26 | 6.45 | 2.23 | 3.75 | O=c1c(Cc2ccccc2)nnc2n1CCN2c1ccccc1 [Compound 41] | – | –
3.35 | 5.55 | 2.73 | 5.61 | 3.31 | 5.22 | CCOc1ccc(N2CCn3c2nnc(Cc2cccc(Cl)c2)c3=O)cc1 [Compound 54] | – | –
3.14 | 5.36 | 2.43 | 5.02 | 3.07 | 5.02 | CCOc1ccc(N2CCn3c2nnc(Cc2ccc(C)cc2)c3=O)cc1 [Compound 52] | – | –
3.48 | 5.90 | 3.26 | 6.40 | 3.86 | 6.02 | O=c1c(-c2ccccc2)nnc2n1CCN2c1ccc(Cl)c(Cl)c1 [Compound 40] | – | –

Further lines, the molecule ahead of its results:

Compound | log kw, ODS [1] | s ODS [1] | log kw, IAM [2] | s IAM [2] | log kw, Cholester [3] | s Cholester [3] | antiproliferative activities in human cancer cells (human cancer cells) | toxic effects for normal cells (normal cells)
COc1ccccc1N1CCn2c1nnc(-c1ccco1)c2=O [Compound 22] | 1.67 | 3.48 | 1.11 | 3.02 | 1.22 | 2.68 | significant antiproliferative activities | less toxic effects
CCc1nnc2n(c1=O)CCN2c1ccc(Cl)cc1 [Compound 5] | 1.78 | 3.56 | 1.24 | 3.25 | 1.18 | 2.61 | significant antiproliferative activities | less toxic effects
CCc1nnc2n(c1=O)CCN2c1ccccc1 [Compound 1] | 0.97 | 2.70 | 0.55 | 2.10 | 0.20 | 1.25 | significant antiproliferative activities | less toxic effects
CCc1nnc2n(c1=O)CCN2c1cccc(Cl)c1 [Compound 4] | 1.33 | 3.15 | 0.84 | 2.60 | 0.62 | 1.82 | significant antiproliferative activities | less toxic effects
O=c1c(-c2ccco2)nnc2n1CCN2c1c(Cl)cccc1Cl [Compound 28] | 2.53 | 4.45 | 1.70 | 3.90 | 2.05 | 3.66 | significant antiproliferative activities | less toxic effects
CCc1nnc2n(c1=O)CCN2c1ccc(C)cc1 [Compound 2] | 1.30 | 3.12 | 1.00 | 2.88 | 0.57 | 1.84 | significant antiproliferative activities | less toxic effects
Cc1cccc(N2CCn3c2nnc(-c2ccccc2)c3=O)c1 [Compound 31] | 2.93 | 5.02 | 2.26 | 4.68 | 2.77 | 4.42 | – | –
CCOC(=O)Cc1nnc2n(c1=O)CCN2c1ccc(Cl)cc1 [Compound 16] | 2.80 | 4.88 | 2.11 | 4.51 | 2.37 | 4.19 | – | –
COC(=O)Cc1nnc2n(c1=O)CCN2c1ccc(Cl)cc1 [Compound 11] | 2.36 | 4.44 | 1.82 | 4.39 | 1.82 | 3.55 | – | –
Cc1cccc(N2CCn3c2nnc(-c2ccccc2)c3=O)c1C [Compound 36] | 2.74 | 4.85 | 1.85 | 4.05 | 2.34 | 3.60 | – | –
CCOc1ccc(N2CCn3c2nnc(CC(=O)OC)c3=O)cc1 [Compound 10] | 1.95 | 3.91 | 1.42 | 3.39 | 1.36 | 2.81 | – | –
O=c1c(-c2ccccc2)nnc2n1CCN2c1ccccc1 [Compound 29] | 2.49 | 4.51 | 1.91 | 4.22 | 2.34 | 4.02 | – | –
COc1ccccc1N1CCn2c1nnc(-c1ccccc1)c2=O [Compound 33] | 1.98 | 3.99 | 1.47 | 3.62 | 1.69 | 2.94 | – | –
COC(=O)Cc1nnc2n(c1=O)CCN2c1ccc(OC)cc1 [Compound 9] | 1.30 | 3.02 | 0.81 | 2.45 | 0.57 | 1.82 | – | –
O=c1c(-c2ccco2)nnc2n1CCN2c1ccccc1 [Compound 18] | 2.12 | 4.06 | 1.29 | 3.23 | 1.43 | 3.12 | – | –
